The values that follow are results of earlier work, collected in patent US8039631B2, “Process for preparing crystalline form A of Lansoprazole” (Daewoong Pharmaceutical Co., Ltd., priority 2006, dated 2011).

Assay in series [1]: not given
This is another data set of the same source.

Where two headings read alike, the source gives them in different places.

As to `Cc1c(OCC(F)(F)F)ccnc1C[S+]([O-])c1nc2ccccc2[nH]1` (centres unmarked) [Form A, Lansoprazole], under “stored for one year at room temperature or elevated temperature”, the “stability (change) when stored” value is “does not change”.
Turning to `Cc1c(OCC(F)(F)F)ccnc1C[S+]([O-])c1nc2ccccc2[nH]1` (centres unmarked) [Form B, Lansoprazole], the “conversion of Form B to Form A” value is on record as “rapidly” in series [1] (at 40° C.) and “slowly converted to Form A” in series [1] (at a temperature of 10° C. or lower). The “change in the crystalline form on storage” value (at elevated temperature) is “some change in the crystalline form”. Under “stored for one year at a low temperature (0° C. or lower)”, the stability when stored result is reported as “high stability”.
